The subject of data set [1] is isolated rat hearts. The data set is described as follows: Langendorff-perfused isolated rat heart: mechanical performance (RPP, HR, ±dP/dt, cardiac efficiency). The note with it: for RPP reduction from baseline / t 0.5, time for half-inhibition of RPP: 5 μM; for decrease of cardiac efficiency (CE): at IC50 for RPP; for +dP/dt × 1000 (contraction rate) / Cardiac efficiency / −dP/dt × 1000 (relaxation rate): hearts treated at the IC50; for heart rate (HR) reduction: perfused at 5 μM; for IC50: read-out: IC50, half-maximal inhibitory concentration for RPP (heart contractile function). As for the experimental part:
(§1) Male Wistar rats (250–300 g) were injected with heparin (10^3 U·kg^−1, i.p.) 20 minutes prior to anesthesia with pentobarbital (100 mg·kg^−1, i.p.). When bilateral corneal reflex was absent, the heart was excised through an abdominal approach. Then, the ascending aorta was visualized and cut and the heart was placed in a cardioplegic solution. To avoid ischemia, the time between cutting the diaphragm to placing the heart in the solution was less than 60 seconds. The hearts were mounted in accordance with the Langendorff model and perfused at a constant flow (12 ml·min^−1) with a Krebs-Henseleit buffer as previously described. A latex balloon connected to a pressure transducer filled with saline solution was inserted into the left ventricle after establishing autonomous contraction. The pulmonary artery was cannulated and connected to a closed chamber using a Clark-type oxygen electrode (Yellow Springs Instruments, Yellow Springs, Ohio) to measure myocardial oxygen consumption (MVO2) in the coronary effluent. The rate of MVO2 was calculated as the difference between the concentration in the K-H buffer before (100%) and after perfusion. Data Trax software (WPI, Sarasota, Florida) was used for continuous recording of the heart rate (HR), left ventricular pressure (LVP), MVO2, and maximum positive and negative derivative of left ventricular pressure (±dP/dt). The baseline was established during 10–15 minutes of K-H perfusion. Each concentration of Cas or Doxo remained in the heart for 30 min. Hearts in the control group were perfused with K-H buffer during the whole experimental time. Rate pressure product (RPP = HR × LVP) and cardiac efficiency ([…]) were calculated as previously reported.

Data set [2] deals with isolated rat hearts. Kind of data set: Myocardial oxygen consumption and energetic metabolites (ATP, PCr) in perfused hearts. The note with it: Cas at IC50, Doxo 5 μM. How it is done: as §1
(§2) To measure the energetic metabolites ATP, phosphocreatine (PCr), and aconitase activity at the end of the perfusion protocols, samples were prepared as follows: the hearts were removed from the perfusion system by cutting the aorta and immediately flash-frozen with liquid N2, weighed, and stored at −80°C. Afterward, the hearts were homogenized in ice-cold buffer containing 250 mM sucrose, 10 mM HEPES, and 1 mM EDTA (pH 7.4). For enzymatic determination, aliquots of the homogenate were immediately frozen in liquid nitrogen and stored at −80°C. Quantification of ATP and PCr was carried out in a HPLC system with a dual-pump gradient (Waters Chromatography, Toronto, Canada) as previously described.

Data set [3] concerns mitochondria isolated from Cas-treated hearts. Kind of data set: Respiratory activity of mitochondria isolated from treated hearts (Clark-type oxygen electrode). Also on record: species or system rat. The settings on record: for Max. respiration: 0.08 μM CCCP; for State 4 respiration: 10 mM glutamate-malate; for Respiratory control / State 3 respiration: malate/glutamate; for State 3 respiration: after 100 μM ADP. As for the experimental part:
(§3) To measure mitochondrial oxygen consumption, mitochondrial membrane potential, and Ca^2+ uptake, cytochrome c samples were prepared as follows: after perfusion, heart tissue from the left ventricle was minced and homogenized in cold mitochondrial isolation medium (in mM: 125 KCl, 1 EDTA, and 10 HEPES-HCl; pH 7.3). The mitochondrial fraction was obtained by differential centrifugation using the protease Nagarse, as previously described. Mitochondrial oxygen consumption was measured using a Clark-type oxygen electrode. The experiments were carried out in respiration assay medium containing 125 KCl, 10 HEPES-HCl, and 3 KH2PO4 (in mM) with pH 7.3. State 4 respiration was measured in the presence of 10 mM glutamate-malate, and state 3 respiration was evaluated after addition of 100 μM ADP. Maximal respiration was determined with 0.08 μM of carbonyl cyanide m-chlorophenyl hydrazine (CCCP). The mitochondrial membrane potential was measured by fluorometry using 5 μM safranine. Mitochondrial Ca^2+ uptake was determined with the metalochromic indicator, Arsenazo III, or calcium green 5N (5N-CG), using a medium containing 50 μM Arsenazo or 10 μM 5N-CG, 10 mM succinate plus rotenone (0.1 μg·ml^−1), 200 μM ADP, and 0.25 μg oligomycin A. Pulses of 10 nmol Ca^+2 were added every 3 minutes to reach a Ca^+2 release due to MPT opening. Mitochondrial cytochrome c quantification from Cas-treated hearts was performed using Western blot analysis as described previously. The blots were developed with Luminata crescendo substrate (Merck Millipore, Darmstadt, Germany) and detected with VisionWorks LS-UVP Chimio System (BioSpectrum 415 Imaging System, Cambridge, UK).

Data set [4] has as its system mitochondrial permeability transition pore. The data set is described as follows: Mitochondrial Ca2+ retention capacity (MPT opening). Also noted: species or system rat. As for the experimental part:
as §3

Data set [5] concerns mitochondria isolated from treated hearts. Kind of data set: Mitochondrial membrane potential (safranine fluorometry). Also on record: species or system rat. As for the experimental part: as §3, with “Mitochondrial cytochrome c quantification from Cas-treated hearts was performed using Western blot analysis as described previously. The blots were developed with Luminata crescendo substrate (Merck Millipore, Darmstadt, Germany) and detected with VisionWorks LS-UVP Chimio System (BioSpectrum 415 Imaging System, Cambridge, UK).” left out

In data set [6] the test system is adult rat ventricular myocytes. The data set is described as follows: Cardiomyocyte viability, Alamar Blue. Format: cell-based. The settings on record: 24 h treatment, read-out: LD50 (IC50) for cardiomyocyte viability. From the text:
(§4) Ventricular cardiomyocytes were obtained from male Wistar rats (250–300 g) by digestion with collagenase type II as previously described. Cells were washed in Tyrode solution (mM): 130 NaCl, 5.4 KCl, 0.4 NaH2PO4, 0.5 MgCl2, 25 HEPES, and 5 glucose with pH 7.4. After isolation, cells were cultivated at a density of 3.2 × 10^3 viable cells/well in 96-well plates pretreated with laminin in M-199 medium supplemented in mM with 5 taurine, 5 creatine, 2 L-carnitine, 2.5 sodium pyruvate, and penicillin-streptomycin at 100 U·ml^−1 and 100 μg·ml^−1, respectively, at 37°C, with 5% CO2 and 95% air. After incubation for three hours, varying concentrations of Cas were tested in triplicate, exposing the myocytes during 24 hours to each treatment. At the end of the incubation period, the cytotoxicity of Cas was measured using the Alamar Blue viability test (Life Technologies, Carlsbad, CA, USA). Release of cytoplasmic lactate dehydrogenase (LDH) was determined using CytoTox-ONE homogeneous membrane integrity kit (Promega Madison, WI, USA). The activity of caspases 3/7 and caspase 9 was measured in cell lysates using caspase-Glo 3/7 and caspase-Glo 9 test luminescent assay (Promega, Madison, WI, USA), respectively. The cardiomyoblast cell line H9c2 (ATCC CRL-1446) was maintained using standard procedures in DMEM supplemented with 10% fetal bovine serum prior to the oxidative stress experiments.

A further data set has as its system H9c2 cells. Kind of data set: Mitochondrial anion superoxide production, MitoSOX flow cytometry. The data set is classed as cell-based. The settings on record: for increase in MitoSOX mean intensity (anion superoxide production): H9c2, acute, Antimycin A 10 μg/mL, Doxo 5 μM.
Data set [7] concerns the target T1, adenine nucleotide translocase (Rattus norvegicus, UniProt Q05962).
T1 construct: adenine nucleotide translocase from mitochondria isolated from Cas-treated hearts; from tissue; host or cells: mitochondria isolated from Casiopeina-perfused rat hearts
T1 sequence (Q05962 1-298): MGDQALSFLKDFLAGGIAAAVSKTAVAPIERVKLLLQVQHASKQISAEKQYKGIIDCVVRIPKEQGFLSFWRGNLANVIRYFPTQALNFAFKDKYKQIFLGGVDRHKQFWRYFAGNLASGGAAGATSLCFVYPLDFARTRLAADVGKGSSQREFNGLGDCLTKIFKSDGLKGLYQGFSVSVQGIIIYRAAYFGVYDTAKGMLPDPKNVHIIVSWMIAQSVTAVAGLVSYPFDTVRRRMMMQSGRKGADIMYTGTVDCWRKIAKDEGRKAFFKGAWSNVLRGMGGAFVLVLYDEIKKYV
The data set is described as follows: Thiol groups of adenine nucleotide translocase (eosin 5-maleimide). The settings on record: mitochondria from hearts treated at IC50.
Protocol: (§5) Thiol groups in the adenine nucleotide translocase were measured by eosin 5-maleimide interaction (EMA) with cysteine residues susceptible to oxidative stress or oxidizing agents [21] and followed by SDS/PAGE electrophoresis. […] Experiments for anion superoxide production were performed in intact cardiomyoblasts using the fluorescent probe MitoSOX (Molecular Probes) in the flow cytometer. H9c2 cells were loaded with MitoSOX during 15 min at 37°C with a cell density of 100,000 cells/mL (final concentration of MitoSOX 5 μM). Afterwards, the cells were subjected to Cas III-Ea treatment (4 or 20 μM); DOXO (5 μM) and Antimycin A (10 μg/mL) were used as positive controls. Finally, the cells were washed and analyzed on a FACSCanto II (BD Biosciences). FACS data was analyzed using FlowJo version 10.0 (Tree Star).

Another data set concerns isolated cardiomyocytes. The data set is described as follows: LDH release (CytoTox-ONE). The data set is classed as cell-based, rat. The settings on record: cardiomyocytes treated at IC50 (II-gly 2 μM, Doxo 10 μM).
Excerpt: as §4

The test system of a further data set is aconitase. Kind of data set: Mitochondrial aconitase activity in heart homogenates. The settings on record: ex vivo heart, Cas at IC50, Doxo 5 μM. How it is done:
as §2

For the next data set, the system named is subcutaneous tumors. The note with it: nude mice ref 30; cited from earlier work.
Setting [8] is: mitochondria from CsA-III-Ea-treated hearts.
Where [9] appears, read: mitochondria from hearts perfused with 10 μM III-Ea alone.
Where [10] appears, read: mitochondria from treated hearts, CsA 0.5 μM added in vitro.

SMILES strings stand for the structures. Like-named read-outs stand apart in the source and are kept apart here. Marks after values point to notes of the source that are not given here.

Protocol for H9c2 cells: as §5

For `CC(=O)C=C(C)[O-].Cc1ccnc2c1ccc1c(C)ccnc12.O.O.O=[N+]([O-])[O-].[Cu+2]` [Cas III-Ea, Aqua(4,7-dimethyl-1,10-phenanthroline)(acetylacetonate)copper(II)nitrate], the “t 0.5 of decline of contractility (RPP)” value in the data set with isolated rat hearts [1] (1 μM CsA perfused 10 min, then 10 μM III-Ea) amounted to 11.98 min. The “RPP reduction from baseline” value with isolated rat hearts [1] (at 20 min) amounted to 48%. Also, in the data set with isolated rat hearts [1] (at 30 min), the “RPP reduction from baseline” value was 97%. In addition, the “t 0.5 of decline of contractility (RPP)” value with isolated rat hearts [1] (10 μM III-Ea alone) amounted to 9.65 min. For the same compound, in the data set with isolated rat hearts [1], the “decrease of cardiac efficiency (CE)” value came out at 47%, the “+dP/dt × 1000 (contraction rate)” value is reported as 2.4 ± 0.23^∗ mmHg·s^−1, the Cardiac efficiency is reported as 3.3 ± 0.2^∗ RPP · MVO2 ^−1 and the “−dP/dt × 1000 (relaxation rate)” value was −0.8 ± 0.13^∗ mmHg·s^−1. The “heart rate (HR) reduction” value in the data set with isolated rat hearts [1] was “not affected”. The “t 0.5, time for half-inhibition of RPP” value in the data set on isolated rat hearts [1] (isolated rat heart) is 21 ± 5.0^d min. Besides, the IC50 with isolated rat hearts [1] (isolated rat heart, at 30 min perfusion) is 1.3 ± 0.2 µM. In the data set on isolated rat hearts [2], the “additional MVO2 to generate the same contractile force compared to control hearts (RPP/MVO2 ratio)” value was 1.47 fold, the “change in MVO2” value is “no changes” and the “decrease in ATP content” value was 56%. In data set [3], the Max. respiration is given as 48.3 ± 5.7^∗ nmol O min^−1·mg^−1, the “State 4 respiration” value was determined as 24.5 ± 5.4 nmol O min^−1·mg^−1, the Respiratory control is 1.5 ± 0.2^∗ and the “State 3 respiration” value is recorded as 37.3 ± 2.7^∗ nmol O min^−1·mg^−1. In addition, in data set [4] (setting [8]), the “more calcium tolerated than mitochondria from III-Ea hearts” value was determined as 69%. For the same compound, the calcium retention capacity in [4] (mitochondria from CsA-III-Ea-treated hearts (1 μM CsA before 10 μM III-Ea)) was 226 ± 13 nmol/mg. Moreover, the calcium retention capacity in data set [4] (setting [9]) was 133 ± 14 nmol/mg. In [4] (mitochondria from hearts treated at IC50, versus control), the “decrease of mitochondrial Ca2+ retention capacity” value stood at 50.5%. Moreover, in data set [4] (setting [10]), the “delay in the opening of MPT in the presence of CsA” value came out at 1.8 fold. In addition, the “mitochondrial membrane potential after addition of 10 μM Ca2+” value in data set [5] (setting [8]) is on record as “remained polarized”. In data set [5] (setting [9]), the “mitochondrial membrane potential after addition of 10 μM Ca2+” value is “depolarization”. The IC50 in [6] came to 2 ± 0.4 µM. Further, the “change in anion superoxide production (MitoSOX)” value in the data set on H9c2 cells (H9c2 intact cells, 4 or 20 μM) was “no change”. Besides, the “oxidation state of adenine nucleotide translocase thiol groups” value in data set [7] was “twofold increase”.

Turning to `COc1cccc2c1C(=O)c1c(O)c3c(c(O)c1C2=O)C[C@@](O)(C(=O)CO)C[C@@H]3O[C@H]1C[C@H](N)[C@H](O)[C@H](C)O1` [Doxo, Doxorubicin, reference compound], the IC50 in the data set with isolated rat hearts [1] (Rattus norvegicus, 0.5 h) is 5 ± 0.3 µM. Moreover, in the data set on isolated rat hearts [1], the “decrease of cardiac efficiency (CE)” value is 55%, the “+dP/dt × 1000 (contraction rate)” value is recorded as 2.1 ± 0.23^∗ mmHg·s^−1, the Cardiac efficiency is 2.8 ± 0.1^∗ RPP · MVO2 ^−1 and the “−dP/dt × 1000 (relaxation rate)” value is given as −0.8 ± 0.18^∗ mmHg·s^−1. Further, the “heart rate (HR) reduction” value in the data set on isolated rat hearts [1] came out at 24%. In the data set with isolated rat hearts [1] (isolated rat heart), the “t 0.5, time for half-inhibition of RPP” value was 18.6 ± 4.0^d min. Further, in the data set with isolated rat hearts [2], the PCr levels entry is “decreased”, the “additional MVO2 to generate the same contractile force compared to control hearts (RPP/MVO2 ratio)” value came to 1.8 fold, the “change in MVO2” value is given as “no changes” and the “decrease in ATP content” value stood at 74%. Also, in data set [3], the Max. respiration is 25 ± 15.1^∗ nmol O min^−1·mg^−1, the “State 4 respiration” value is given as 18 ± 2.0 nmol O min^−1·mg^−1, the Respiratory control is on record as 1 ± 0.3^∗ and the “State 3 respiration” value is recorded as 25 ± 8.8^∗ nmol O min^−1·mg^−1. Further, the “protective effect of CsA on Ca2+ retention capacity” value in data set [4] (setting [10]) is recorded as 51%. Further, the IC50 in [6] (Rattus norvegicus, Ventricular myocyte) stood at 10 ± 0.5 µM. Besides, in the data set with isolated cardiomyocytes, the “increase in LDH release compared to the control” value is 4.7 fold. In addition, in the data set on H9c2 cells, the “increase in MitoSOX mean intensity (anion superoxide production)” value is recorded as 4 fold. Moreover, the aconitase activity entry with aconitase is “decreased”. Besides, the “reduction of the volume of subcutaneous tumors” value with subcutaneous tumors is listed as 20%.

In the case of `CCCCCC[C@H]1C(=O)O[C@H](C)[C@H](NC(=O)c2cccc(NC=O)c2O)C(=O)O[C@@H](C)[C@@H]1OC(=O)CC(C)C` [Antimycin A], in the data set with H9c2 cells, the “increase in MitoSOX mean intensity (anion superoxide production)” value is on record as 9 fold.

These data come from publication PMC5889877, “Ex Vivo Cardiotoxicity of Antineoplastic Casiopeinas Is Mediated through Energetic Dysfunction and Triggered Mitochondrial-Dependent Apoptosis” (Oxidative Medicine and Cellular Longevity, 2018).
